# In patent publication US20250170100A1, “MONOACYLGLYCEROL LIPASE INHIBITORS AND USE THEREOF FOR THE TREATMENT OF ANXIETY AND RELATED CONDITIONS” (Psy Therapeutics, Inc., priority 2021, published 2025):
# Key:
# [1] = molecular target: human recombinant FAAH (Homo sapiens (Human), UniProt O00519); experiment: FAAH counter screen (Fatty Acid Amide Hydrolase Inhibitor Screening Assay Kit); format: biochemical; conditions: Method B: starting concentration of 10 μM
# Method: MAGL inhibitor compounds were also counter-screened for FAAH inhibition potency using the following assay. Assessment of FAAH inhibition was performed using Fatty Acid Amide Hydrolase Inhibitor Screening Assay Kit (Cayman Item No. 10005196) following manufacture's instruction with some modifications. The kit utilizes human recombinant FAAH and the fluorescent substrate, AMC Arachidonoyl amide (AAMCA). 5 μL of assay buffer (125 mM Tris, pH 9.0, 1 mM EDTA, i.e. ethylenediaminetetraacetic acid) was added to a 384-well black plate (Corning, 3573). Test compounds and control inhibitor JZL-195 (Cayman Chemical, 13668) were tested in 10-concentration IC50 mode with 3-fold serial dilution at a starting concentration of 100 μM and 10 μM, respectively. 300 nL or 30 nL of test compounds were delivered into a 384-well black plate (Corning, 3573) using a Labcyte Echo, followed by addition of 15 μL of FAAH enzyme (Cayman, 700302) in assay buffer. After a 5-minute pre-incubation at room temperature, 10 μL of AAMCA was added in assay buffer to start the reaction. Final concentration of FAAH enzyme is not specified and AAMCA substrate was used at the 20 μM. After these dilutions, the final concentration of the test compounds ranged from 100 μM to 5.08 nM or 10 μM down to 0.508 nM. The reaction was allowed to progress for 60 minutes, while the plate was read on an Envision plate reader at an Ex/Em of 350/460 nm with readings every minute. The data was analyzed in Microsoft Excel, using the slope between 30 and 59 minutes. The average of the no-enzyme wells (background) was subtracted from the data. The background-subtracted slope data was converted to % activity using the average of wells with enzyme and DMSO vehicle. IC50 values were calculated using GraphPad software (Sigmoidal dose response, variable slope equation).
# Compounds listed in Table D2 were tested in the FAAH Counterscreen of Example 19
# [2] = molecular target: human MAGL (Homo sapiens (Human), UniProt Q99685); experiment: MAGL reversible inhibition assay (washout); format: biochemical; conditions: pre-washout compound concentration: 1 μM
# human MAGL, sequence (Q99685 whole entry): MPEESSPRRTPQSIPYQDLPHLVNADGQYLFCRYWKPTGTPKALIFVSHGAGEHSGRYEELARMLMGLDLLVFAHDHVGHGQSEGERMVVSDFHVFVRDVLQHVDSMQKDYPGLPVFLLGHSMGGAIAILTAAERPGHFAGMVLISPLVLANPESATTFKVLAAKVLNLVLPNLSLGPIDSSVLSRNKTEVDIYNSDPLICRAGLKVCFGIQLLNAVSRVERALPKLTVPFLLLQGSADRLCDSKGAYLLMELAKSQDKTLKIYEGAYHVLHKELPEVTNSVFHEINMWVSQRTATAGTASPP
# Method: The reversible mechanism of MAGL inhibition of a test compound of Formula (I) can be determined. Flag-tagged MAGL enzyme will be immobilized on anti-Flag beads. Immobilized enzyme will be incubated+/−inhibitor at a dose that produces complete inhibition. Colorimetric substrate (4-NPA) will be added and the reaction monitored on a plate reader for 30 minutes to verify complete inhibition. Immobilized enzyme will then be washed thoroughly to remove the inhibitor, and fresh substrate will be added. The reaction will be monitored for an additional 30 minutes; returning enzymatic activity will indicate reversibility of inhibition.
# MAGL enzyme was incubated for 30 minutes in the presence of 40× the IC50 concentration of inhibitor. Enzyme+inhibitor mix was then diluted 40-fold so that the final concentration of the inhibitor equaled the IC50 concentration. Substrate was added and the reaction was monitored for 30 minutes.
# [3] = tested on: 2-AG levels in brain; experiment: 2-AG estimation in mouse brain after single intraperitoneal administration of Compound 473; format: in vivo, male C57BL/6 mice; conditions: IP 20 mg/kg, 0.5 h
# Method: (§1) This experiment was performed to determine plasma pharmacokinetics and estimate 2-AG levels in male C57BL/6 mice brain following a single intraperitoneal administration of Compound-473 (Dose: 20 mg/kg).
# (§2) Study Design: A total of twelve C57BL/6 male mice were used in this study. Six animals were administered intraperitoneally with solution formulation of PSY-05-00473-002 at 20 mg/kg dose. Six animals were administered vehicle (5% NMP, 5% Solutol HS15 and 90% Normal saline) intraperitoneally at 10 mL/kg dose volume. Blood samples (approximately 60 μL) were collected under light isoflurane anesthesia from a set of six mice at 0.5 h. Plasma was harvested by centrifugation of blood and stored at −70±10° C. until analysis. After blood collection, mice were euthanized by cervical dislocation and brain samples were dissected rapidly and snapped frozen in liquid nitrogen and stored at −80. To homogenize, removed brain samples from the freezer, were divided into two equal hemispheres and weighed while still in frozen condition, and begun homogenization/extraction procedure without allowing the brain samples to thaw. […]
# (§3) Analysis: For PK estimation, brain samples were homogenized in 2 volumes of PBS of brain weight. […] Plasma and brain homogenate samples were quantified by fit-for-purpose LC-MS/MS method (LLOQ: 1.02 ng/mL for plasma and 2.03 ng/ml for brain).
# [4] = Plasma and brain concentrations after single intraperitoneal administration of Compound 473; format: in vivo, male C57BL/6 mice; conditions: male, C57BL/6, mouse, IP 20 mg/kg, read-out: Brain/Plasma Ratio (kp) (mean)
# Method: as §1, §2, §3
# [5] = Pharmacokinetic study of compounds in mice (brain, oral); format: in vivo, male C57BL/6 mice; conditions: 5 mg/kg
# Method: Healthy male C57BL/6 mice (8-12 weeks old) weighing between 17 to 35 g were procured from Global, India. Temperature and humidity were maintained at 22±3° C. and 30-70%, respectively and illumination was controlled to give a sequence of 12 hr light and 12 hr dark cycle. Temperature and humidity were recorded by auto-controlled data logger system. All the animals were provided laboratory rodent diet. Reverse osmosis water treated with ultraviolet light was provided ad libitum.
# Protocol A: Twenty-four male mice were divided into two groups as; Group 1:30 mg/kg/IP, Plasma and brain; Number of animals=12; Animal #1-12. Group 2:30 mg/kg/PO; Plasma and brain; Number of animals=12; Animal #13-24. […] All samples were processed for analysis by protein precipitation using acetonitrile and analyzed with fit-for-purpose LC/MS/MS method (LLOQ-2.02 ng/mL for plasma and 6.06 ng/g for brain). Pharmacokinetic parameters were calculated using the non-compartmental analysis tool of Phoenix WinNonlin®.
# Protocol B: Thirty six mice were included into the study and divided in to three groups as Group 1 (n=12), Group 2 (n=12) and Group 3 (n=12) with n=2 mice per time-point design. […] Plasma and brain samples were quantified by fit-for-purpose LC-MS/MS method (LLOQ: 1.01 ng/mL for plasma and 2.02 ng/ml for brain). […]
# human recombinant FAAH, sequence (O00519 whole entry): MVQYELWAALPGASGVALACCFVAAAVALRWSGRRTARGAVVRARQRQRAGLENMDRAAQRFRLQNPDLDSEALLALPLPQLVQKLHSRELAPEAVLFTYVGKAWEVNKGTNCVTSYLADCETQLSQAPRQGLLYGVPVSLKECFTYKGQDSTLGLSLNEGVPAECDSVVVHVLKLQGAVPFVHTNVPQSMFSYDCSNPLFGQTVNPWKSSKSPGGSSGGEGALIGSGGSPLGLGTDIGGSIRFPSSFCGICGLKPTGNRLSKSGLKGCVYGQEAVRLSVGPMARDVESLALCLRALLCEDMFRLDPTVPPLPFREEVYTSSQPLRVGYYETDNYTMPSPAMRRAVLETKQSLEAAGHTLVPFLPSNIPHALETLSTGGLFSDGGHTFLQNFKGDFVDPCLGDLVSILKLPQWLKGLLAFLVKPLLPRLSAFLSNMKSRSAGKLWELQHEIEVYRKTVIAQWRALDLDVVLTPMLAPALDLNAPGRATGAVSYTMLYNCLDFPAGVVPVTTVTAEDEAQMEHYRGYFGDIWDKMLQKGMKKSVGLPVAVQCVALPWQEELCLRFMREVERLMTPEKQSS
smiles,measurement,setting,value
"O=C(c1cc(O)ccc1F)N1CC2(CC(n3cc(C(F)(F)F)c(-c4ccccc4F)n3)C2)C1 [Compound 473, (2-fluoro-5-hydroxyphenyl) {6-[3-(o-fluorophenyl)-4-(trifluoromethyl)-1-pyrazolyl]-2-aza-2-spiro[3.3]heptyl}methanone]",IC50,[1],> 10 µM
same,A: degree to which MAGL enzymatic activity returned following washout,[2],41
same,Mean 2AG Concentration in Brain,[3],17.38 nmol/g
same,Kp at 0.5 h,[4],1.44
same,AUClast,[5],464.42 ng·h/mL
same,Cmax,[5],171.59 ng/g
